The target of one assay is T1, NDM-1 (Klebsiella pneumoniae, UniProt C7C422).
T1 construct: made in house
Kind of assay: In vitro MBL inhibition assay, imipenem hydrolysis (NDM-1). As to conditions: Ki NDM-1, imipenem substrate, Ki from IC50 by Cheng-Prusoff, Km 70 μM. In kind it is biochemical. How it is done: NDM-1 is produced and purified as disclosed in Yong et al, Antimicrobial Agents & Chemotherapy, (2009) 53(12), 5046-54.
(§1) Reaction buffers were prepared in a UV-transparent 96-well microplate, which buffer contains 10 mM HEPES pH 7.5, 50 μM ZnSO4, 20 μg/mL BSA. An amount of 75 ng of protein was added to each well.
(§2) Spectrophometric assays are performed to determine NDM-1/VIM-2/IMP-1 carbapenemase activity using purified proteins (50 ng for NDM-1/VIM-2, 25 ng IMP-1) from NDM-1/VIM-2/IMP-1 expressing bacteria using […] of imipenem as substrate in 10 mM HEPES pH 7.5, 50 μM ZnSO4. MBL hydrolysis is measured at 299 nm for 10 minutes at 30° C. as the absorbance changes due to the opening of beta-lactam ring of the antibiotic.
(§3) The Ki values obtained for selected example compounds are shown in Table 3, where they are compared with the values for pyridine-2-carboxylic acid.

In the next assay the target is T2, VIM-2 (Escherichia coli, UniProt Q5U7L7).
T2 construct: made in house
As to the kind of experiment: In vitro MBL inhibition assay, imipenem hydrolysis (VIM-2). In kind it is biochemical. Conditions: Ki VIM-2, imipenem substrate, Ki from IC50 by Cheng-Prusoff, Km 9 μM. As to the method:
The MBL enzyme VIM-2 is produced and purified as disclosed in Borgianni et al, Antimicrobial Agents & Chemotherapy, (2010), 54(8), 3197-3204.
as §1, §2, §3

Another assay concerns the target T3, IMP-1 (Serratia marcescens, UniProt P52699).
T3 construct: made in house
Kind of assay: In vitro MBL inhibition assay, imipenem hydrolysis (IMP-1). In kind it is biochemical. As to conditions: Ki IMP-1, imipenem substrate, Ki from IC50 by Cheng-Prusoff, Km 25 μM. How it is done:
The MBL enzyme IMP-1 is produced and purified as disclosed in Laraki et al, Antimicrobial Agents & Chemotherapy, (1999), 43(4), 902-906.
as §1, §2, §3

In assay [1] the test system is NTBC020 Strain: Escherichia coli producing NDM-1+TEM-1+CTX-M-15. As to the kind of experiment: MIC of meropenem in presence of the inhibitor, broth microdilution. The format is cell-based. As to conditions: compound at 100 μM, 37° C., 18-20 h. How it is done: (§4) The minimal inhibitory concentration (MIC) of meropenem in presence of the inhibitor is routinely assessed against 3 representative clinical strains: • NTBC020 Strain: Escherichia coli producing NDM-1+TEM-1+CTX-M-15, (isolated in Australia in 2009); • NTBC023 strain: Klebsiella pneumoniae producing VIM-1+SHV-5, (isolated in France in 2002); • NTBC062 strain: Klebsiella pneumoniae producing IMP-1+TEM-1, (isolated in France in 2012);
(§5) The assay was performed according to the standard broth microdilution method described by the Clinical and Laboratory Standards Institute (CLSI-M7-A7—Methods for dilution antimicrobial susceptibility tests for bacteria that grow aerobically; Approved standard; CLSI, Wayne, Pa., USA. 2006). This method involves the use of small volumes of broth dispensed in sterile, plastic 96-wells microdilution plates. The compounds were tested at a concentration of 100 μM and controls included the susceptibility tests for the three selected strains without the compounds and for the two reference strains E. coli ATCC 25922 and Pseudomonas aeruginosa ATCC 27853 as Quality Controls.
(§6) From a stock solution at 20 mM in DMSO, compounds were prepared by diluting 0.04 mL of the compound solution in 0.04 mL of Mueller-Hinton (MH) broth (2-fold dilution). Then, 0.001 mL of the compound dilution was distributed in the 96-wells microdilution plates to give a final concentration of 100 μM for a final volume of 0.1 mL by well.
(§7) From a meropenem stock solution at 10 mg/ml in water, meropenem 2-fold serial dilutions were prepared in MH broth at twice the desired final concentrations, e.g from 512 to 0.0037 μg/ml. The 96-wells microdilution plates were then filled with 0.05 mL of the meropenem dilutions. For each susceptibility test, two wells were left free of antibiotic and filled with 0.05 mL of sterile MH broth to serve as growth controls.
(§8) The bacterial inoculum was prepared by direct colony suspension from a 24 h-agar plate in saline solution (NaCl 9 g/L). The suspension was adjusted to a 0.5 MacFarland turbidity standard (1-2×10^8 CFU/mL) and then diluted 1:100 in MH broth. 0.05 mL of the bacterial dilution was then inoculated to each well giving a final volume of 0.1 mL and a final bacterial concentration of approximately 5×10^5 CFU/mL.
(§9) Microdilution plates were incubated at 37° C. in an ambient air incubator for 18-20 h.
(Broth dilution looks for growth in wells or tubes with falling amounts of substance.)

In assay [2] the test system is NTBC023 strain: Klebsiella pneumoniae producing VIM-1+SHV-5. Described as above. In kind it is cell-based. Conditions: compound at 100 μM, 37° C., 18-20 h. As to the method: as §4, §5, §6, §7, §8, §9
A further assay has as its system NTBC039. Described as above. The format is cell-based. As to conditions: compound at 100 μM, 37° C., 18-20 h.

We go through one compound from US9914712B2, “Antibacterial thiazolecarboxylic acids” (priority 2013, dated 2018).

Molecules are shown by their SMILES.

T1 sequence (C7C422 29-270 limits assumed): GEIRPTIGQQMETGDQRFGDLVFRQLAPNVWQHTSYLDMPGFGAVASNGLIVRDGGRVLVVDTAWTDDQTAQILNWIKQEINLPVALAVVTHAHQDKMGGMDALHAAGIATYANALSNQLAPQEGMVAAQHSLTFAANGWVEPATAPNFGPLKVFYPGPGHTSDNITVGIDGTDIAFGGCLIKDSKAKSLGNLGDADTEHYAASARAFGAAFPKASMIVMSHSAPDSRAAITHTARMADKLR
T3 sequence (P52699 19-246, species assumed): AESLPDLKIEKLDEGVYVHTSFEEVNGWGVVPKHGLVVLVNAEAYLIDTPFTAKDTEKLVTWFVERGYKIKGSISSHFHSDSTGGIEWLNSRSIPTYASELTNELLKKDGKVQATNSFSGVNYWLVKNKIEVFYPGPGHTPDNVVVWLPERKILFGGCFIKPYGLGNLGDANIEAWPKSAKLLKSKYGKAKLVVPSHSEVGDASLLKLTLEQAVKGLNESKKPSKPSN

The term Ki denotes the equilibrium dissociation constant of an inhibitor or competing ligand from its target. Higher therefore signals weaker binding. Regarding `O=C(O)c1ncsc1NS(=O)(=O)c1ccc(OC2CCNC2)cc1` (stereo not drawn) [Compound 163, 5-[4-(pyrrolidin-3-yloxy)phenylsulfonamido]-1,3-thiazole-4-carboxylic acid], the Ki at NDM-1 came to 0.37 µM; at VIM-2, 0.28 µM; on IMP-1 it was 1 µM. For the same compound, in assay [1], the MIC of meropenem, strain NTBC020 was determined as 16 µg/mL. In addition, in assay [2], the MIC of meropenem, strain NTBC023 came to 32 µg/mL. Besides, the MIC of meropenem, strain NTBC039 in the assay with NTBC039 was determined as 16 µg/mL.
